Assay results taken from ChEMBL document CHEMBL5050844 (2019).

Experiments:
[1] = Induction of anti-CD3 antibodies-stimulated human T cell activation at 1 uM assessed fold increase in CD25 expression measured by ELISA assay; type: functional, T cell line; note: reference of the scale not given here
[2] = Induction of anti-CD3 antibodies-stimulated human T cell activation at 1 uM assessed fold increase in IL-2 secretion measured by ELISA assay; type: functional, T cell line; note: reference of the scale not given here
[3] = Induction of anti-CD3 antibodies-stimulated human T cell activation at 8 uM assessed fold increase in CD25 expression measured by ELISA assay; type: functional, T cell line; note: reference of the scale not given here
[4] = Induction of anti-CD3/CD28 antibodies-stimulated human T cell activation at 0.3 uM assessed fold increase in IL-2 secretion measured by ELISA assay; type: functional, T cell line
[5] = Induction of anti-CD3/CD28 antibodies-stimulated human T cell activation at 4 uM assessed fold increase in IL-2 secretion measured by ELISA assay; type: functional, T cell line
[6] = Induction of anti-CD3/CD28 antibodies-stimulated human T cell activation at 4 uM assessed fold increase in CD25 expression measured by ELISA assay; type: functional, T cell line
[7] = Induction of anti-CD3 antibodies-stimulated human T cell activation at 8 uM assessed fold increase in IL-2 secretion measured by ELISA assay; type: functional, T cell line; note: reference of the scale not given here
[8] = target: E3 ubiquitin-protein ligase CBL-B (Homo sapiens, UniProt Q13191); assay: Inhibition of N-terminal Avi-tagged human CBL-B (36 to 427 residues) incubated with 60 nM Src kinase for 1.5 hrs followed by incubation with fluorescently labeled UbcH5B-Ub for 1 hr and measured by TR-FRET assay; type: single protein
Chain of E3 ubiquitin-protein ligase CBL-B (Q13191 whole entry, the tested form may be a part): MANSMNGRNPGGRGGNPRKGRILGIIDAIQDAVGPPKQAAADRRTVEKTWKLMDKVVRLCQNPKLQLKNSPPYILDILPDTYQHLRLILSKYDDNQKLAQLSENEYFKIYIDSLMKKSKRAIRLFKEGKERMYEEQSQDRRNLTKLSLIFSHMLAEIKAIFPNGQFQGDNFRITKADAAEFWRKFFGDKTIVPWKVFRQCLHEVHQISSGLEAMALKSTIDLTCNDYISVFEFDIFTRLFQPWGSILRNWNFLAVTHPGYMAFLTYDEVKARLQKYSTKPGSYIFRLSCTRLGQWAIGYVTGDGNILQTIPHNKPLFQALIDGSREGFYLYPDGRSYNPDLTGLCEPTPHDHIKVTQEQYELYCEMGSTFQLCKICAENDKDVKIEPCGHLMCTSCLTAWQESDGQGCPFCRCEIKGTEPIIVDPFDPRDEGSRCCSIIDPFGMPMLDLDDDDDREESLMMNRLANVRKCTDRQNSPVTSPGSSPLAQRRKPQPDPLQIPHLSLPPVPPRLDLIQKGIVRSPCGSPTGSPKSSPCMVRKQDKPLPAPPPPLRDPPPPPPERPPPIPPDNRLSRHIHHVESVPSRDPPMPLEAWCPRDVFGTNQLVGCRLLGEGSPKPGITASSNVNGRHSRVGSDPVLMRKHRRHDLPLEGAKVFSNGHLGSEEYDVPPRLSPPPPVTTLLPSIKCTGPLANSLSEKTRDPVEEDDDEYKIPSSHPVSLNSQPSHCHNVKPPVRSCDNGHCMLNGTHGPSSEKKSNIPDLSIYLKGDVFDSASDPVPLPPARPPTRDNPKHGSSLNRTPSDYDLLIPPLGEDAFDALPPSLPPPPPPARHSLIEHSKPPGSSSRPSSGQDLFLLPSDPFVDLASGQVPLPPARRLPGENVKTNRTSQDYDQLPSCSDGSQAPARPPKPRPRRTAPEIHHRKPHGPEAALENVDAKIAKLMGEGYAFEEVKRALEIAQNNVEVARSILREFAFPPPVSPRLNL

[9] = Induction of anti-CD3/CD28 antibodies-stimulated human T cell activation at 1 uM assessed fold increase in IL-2 secretion measured by ELISA assay; type: functional, T cell line
[10] = Induction of anti-CD3/CD28 antibodies-stimulated human T cell activation at 0.3 uM assessed fold increase in CD25 expression measured by ELISA assay; type: functional, T cell line
[11] = Induction of anti-CD3/CD28 antibodies-stimulated human T cell activation at 1 uM assessed fold increase in CD25 expression measured by ELISA assay; type: functional, T cell line

C[C@H](Cc1nncn1C)c1cccc(NC(=O)c2ccnc3ccnn23)c1
fold change (FC) [1]: 0.801
fold change (FC) [2]: 0.051
fold change (FC) [3]: >=1.001
fold change (FC) [4]: 1.01
fold change (FC) [5]: 2.51
fold change (FC) [6]: 1.01
fold change (FC) [7]: 0.101
IC50 [8]: < 100 nM
fold change (FC) [9]: 1.01
fold change (FC) [10]: 1.01
fold change (FC) [11]: 1.01

C[C@H](Cc1nocc1C(F)(F)F)c1cccc(N2Cc3c(cc(C(=O)N4CC[C@H](F)C4)cc3C(F)(F)F)C2=O)c1
fold change (FC) [1]: 0.601
fold change (FC) [2]: <=0.05
fold change (FC) [3]: >=1.001
fold change (FC) [4]: 1.01
fold change (FC) [5]: 2.51
fold change (FC) [6]: 1.31
fold change (FC) [7]: 0.101
IC50 [8]: ≤ 300 nM
fold change (FC) [9]: 1.01
fold change (FC) [10]: 1.01
fold change (FC) [11]: 1.01

COc1ccc(C(=O)Nc2cccc([C@H](C)Sc3nncn3C)c2)nc1C1CC1
fold change (FC) [1]: 0.601
fold change (FC) [2]: <=0.05
fold change (FC) [3]: >=1.001
fold change (FC) [4]: 1.01
fold change (FC) [5]: 2.51
fold change (FC) [6]: 1.01
fold change (FC) [7]: 0.101
IC50 [8]: < 100 nM
fold change (FC) [9]: 1.01
fold change (FC) [10]: 1.01
fold change (FC) [11]: 1.01

Cn1cnnc1CC1(c2cccc(N3Cc4c(cccc4C(F)(F)F)C3=O)c2)COC1
fold change (FC) [1]: 0.801
fold change (FC) [2]: 0.051
fold change (FC) [3]: >=1.001
fold change (FC) [4]: 1.01
fold change (FC) [5]: >=7.5
fold change (FC) [6]: 1.31
fold change (FC) [7]: 0.101
IC50 [8]: < 100 nM
fold change (FC) [9]: 2.51
fold change (FC) [10]: 1.01
fold change (FC) [11]: 1.01

C[C@H](Cc1nncn1C)c1cccc(N2Cc3c(cc(C(C)(C)O)cc3C(F)(F)F)C2=O)c1
fold change (FC) [1]: >=1.001
fold change (FC) [2]: 0.101
fold change (FC) [3]: 0.801
fold change (FC) [4]: >=7.5
fold change (FC) [5]: 5
fold change (FC) [6]: 1.31
fold change (FC) [7]: 0.151
IC50 [8]: < 100 nM
fold change (FC) [9]: 2.51
fold change (FC) [10]: >=1.76
fold change (FC) [11]: 1.01

C[C@H](Cc1nncn1C)c1cccc(N2Cc3c(cc([C@H](C)N4CC[C@H](F)C4)cc3C(F)(F)F)C2=O)c1
fold change (FC) [1]: >=1.001
fold change (FC) [2]: >=0.201
fold change (FC) [3]: >=1.001
fold change (FC) [4]: >=7.5
fold change (FC) [5]: >=7.5
fold change (FC) [6]: 1.31
fold change (FC) [7]: >=0.201
IC50 [8]: < 100 nM
fold change (FC) [9]: >=7.5
fold change (FC) [10]: 1.31
fold change (FC) [11]: 1.31

C[C@H](Cc1nncn1C)c1cccc(NC(=O)c2cc(O[C@@H]3CC[C@@H](O)C3)ccn2)c1 (relative stereo)
fold change (FC) [1]: 0.801
fold change (FC) [2]: 0.051
fold change (FC) [3]: >=1.001
fold change (FC) [4]: 2.51
fold change (FC) [5]: 5
fold change (FC) [6]: 1.31
fold change (FC) [7]: 0.101
IC50 [8]: < 100 nM
fold change (FC) [9]: 2.51
fold change (FC) [10]: 1.01
fold change (FC) [11]: 1.01

Cc1cc(C(=O)Nc2cccc([C@H](C)Sc3nncn3C)c2)nc(C(F)(F)F)c1
fold change (FC) [1]: 0.601
fold change (FC) [2]: <=0.05
fold change (FC) [3]: >=1.001
fold change (FC) [4]: 1.01
fold change (FC) [5]: 2.51
fold change (FC) [6]: 1.01
fold change (FC) [7]: 0.101
IC50 [8]: < 100 nM
fold change (FC) [9]: 1.01
fold change (FC) [10]: 1.01
fold change (FC) [11]: 1.01

C[C@@H](c1cc2c(c(C(F)(F)F)c1)CN(c1cccc(C3(Cc4nncn4C)COC3)c1)C2=O)N1CCC(F)(F)C1
fold change (FC) [1]: >=1.001
fold change (FC) [2]: 0.151
fold change (FC) [3]: >=1.001
fold change (FC) [4]: 2.51
fold change (FC) [5]: >=7.5
fold change (FC) [6]: 1.31
fold change (FC) [7]: >=0.201
IC50 [8]: < 100 nM
fold change (FC) [9]: >=7.5
fold change (FC) [10]: 1.31
fold change (FC) [11]: 1.31

Cn1cnnc1C(F)(F)[C@](C)(F)c1cccc(N2Cc3c(cc(CN4CC[C@H](C#N)C4)cc3C(F)(F)F)C2=O)c1
fold change (FC) [1]: >=1.001
fold change (FC) [2]: >=0.201
fold change (FC) [3]: >=1.001
fold change (FC) [4]: 5
fold change (FC) [5]: >=7.5
fold change (FC) [6]: 1.31
fold change (FC) [7]: >=0.201
IC50 [8]: < 100 nM
fold change (FC) [9]: >=7.5
fold change (FC) [10]: 1.01
fold change (FC) [11]: 1.31

C[C@H](Sc1nncn1C)c1cccc(NC(=O)c2cccc(C3CC3)n2)c1
fold change (FC) [1]: <=0.6
fold change (FC) [2]: 0.051
fold change (FC) [3]: 0.801
fold change (FC) [4]: 1.01
fold change (FC) [5]: 2.51
fold change (FC) [6]: 1.51
fold change (FC) [7]: 0.151
IC50 [8]: < 100 nM
fold change (FC) [9]: 2.51
fold change (FC) [10]: 1.31
fold change (FC) [11]: 1.51

Cn1cnnc1CC1(c2cccc(N3Cc4c(cc(CN5C[C@@H](F)[C@@H](F)C5)cc4C(F)(F)F)C3=O)c2)COC1
fold change (FC) [1]: 0.801
fold change (FC) [2]: 0.151
fold change (FC) [3]: >=1.001
fold change (FC) [4]: >=7.5
fold change (FC) [5]: >=7.5
fold change (FC) [6]: 1.51
fold change (FC) [7]: >=0.201
IC50 [8]: < 100 nM
fold change (FC) [9]: >=7.5
fold change (FC) [10]: 1.31
fold change (FC) [11]: 1.31

Cn1cnnc1CC1(c2cccc(N3Cc4c(cc(CN5CC(C(=O)O)C5)cc4C(F)(F)F)C3=O)c2)COC1
fold change (FC) [1]: 0.801
fold change (FC) [2]: 0.151
fold change (FC) [3]: >=1.001
fold change (FC) [4]: 1.01
fold change (FC) [5]: 1.01
fold change (FC) [6]: 1.01
fold change (FC) [7]: >=0.201
IC50 [8]: < 100 nM
fold change (FC) [9]: 1.01
fold change (FC) [10]: 1.01
fold change (FC) [11]: 1.01

Cn1cnnc1CC(C)(C)c1cccc(NC(=O)c2cc(C(=O)N3CC[C@H](O)C3)cc(C(F)(F)F)n2)c1
fold change (FC) [1]: 0.801
fold change (FC) [2]: 0.101
fold change (FC) [3]: >=1.001
fold change (FC) [4]: 1.01
fold change (FC) [5]: 5
fold change (FC) [6]: 1.01
fold change (FC) [7]: >=0.201
IC50 [8]: < 100 nM
fold change (FC) [9]: 2.51
fold change (FC) [10]: 1.01
fold change (FC) [11]: 1.01

C[C@H](Cc1nncn1C)c1cccc(N2Cc3c(cc(C(=O)N4CC(O)C4)cc3C(F)(F)F)C2=O)c1
fold change (FC) [1]: 0.801
fold change (FC) [2]: 0.051
fold change (FC) [3]: >=1.001
fold change (FC) [4]: 1.01
fold change (FC) [5]: >=7.5
fold change (FC) [6]: 1.31
fold change (FC) [7]: 0.151
IC50 [8]: < 100 nM
fold change (FC) [9]: 2.51
fold change (FC) [10]: 1.01
fold change (FC) [11]: 1.01

Cc1ccc(C(=O)Nc2cccc([C@H](C)Sc3nncn3C)c2)nc1C1CC1
fold change (FC) [1]: 0.601
fold change (FC) [2]: <=0.05
fold change (FC) [3]: 0.801
fold change (FC) [4]: 1.01
fold change (FC) [5]: >=7.5
fold change (FC) [6]: 1.01
fold change (FC) [7]: 0.151
IC50 [8]: < 100 nM
fold change (FC) [9]: 2.51
fold change (FC) [10]: 1.01
fold change (FC) [11]: 1.01

Cn1cnnc1CC1(c2cccc(N3Cc4c(cc(CN5CC(C)(F)C5)cc4C(F)(F)F)C3=O)c2)COC1
fold change (FC) [1]: >=1.001
fold change (FC) [2]: >=0.201
fold change (FC) [3]: >=1.001
fold change (FC) [4]: >=7.5
fold change (FC) [5]: >=7.5
fold change (FC) [6]: 1.51
fold change (FC) [7]: >=0.201
IC50 [8]: < 100 nM
fold change (FC) [9]: >=7.5
fold change (FC) [10]: 1.31
fold change (FC) [11]: 1.51

C[C@H]1C=CCN1Cc1cc2c(c(C(F)(F)F)c1)CN(c1cccc(C3(Cc4nncn4C)COC3)c1)C2=O
fold change (FC) [1]: >=1.001
fold change (FC) [2]: >=0.201
fold change (FC) [3]: >=1.001
fold change (FC) [4]: >=7.5
fold change (FC) [5]: >=7.5
fold change (FC) [6]: 1.51
fold change (FC) [7]: >=0.201
IC50 [8]: < 100 nM
fold change (FC) [9]: >=7.5
fold change (FC) [10]: 1.31
fold change (FC) [11]: 1.51

CC(O)c1cc2c(c(C(F)(F)F)c1)CN(c1cccc([C@@](C)(F)C(F)(F)c3nncn3C)c1)C2=O (some centres undefined)
fold change (FC) [1]: 0.801
fold change (FC) [2]: 0.051
fold change (FC) [3]: >=1.001
fold change (FC) [4]: 1.01
fold change (FC) [5]: 5
fold change (FC) [6]: 1.01
fold change (FC) [7]: >=0.201
IC50 [8]: < 100 nM
fold change (FC) [9]: 1.01
fold change (FC) [10]: 1.01
fold change (FC) [11]: 1.01
